What all share (type): cell-based
The subject of one assay is AGS cells. Kind of assay: AGS cell proliferation (CellTiter-Glo). The conditions noted are these: AGS gastric carcinoma [heterozygous G12D], 72 hr, 0.5% DMSO, read-out: CTG(IC50) ABS-72 H(nM) AGS. On the procedure:
The following cancer cell lines were employed: AGS gastric carcinoma [heterozygous G12D](ATCC, CRL-1739); A-427 lung carcinoma [heterozygous G12D](ATCC, HTB-53); ASPC1 pancreatic adenocarcinoma [homozygous G12D](ATCC, CRL-1682) and SW 1990 pancreatic adenocarcinoma [homozygous G12D](ATCC CRL-2172). Cell lines were cultured essentially according to ATCC recommendations.
(§1) AGS, A-427, ASPC1, SW 1990, and GP2D cells were plated in 96-well tissue culture plates at 4,000 cells/well and incubated at 37° […] for 72 hr in 100 μl of media. 3-old serial dilutions of each test compound were prepared ranging from 20 μM to 1.02 nM. Each cell line was then treated with test compounds at various concentrations with a final concentration of 0.5% DMSO/well, and then incubated at 37° C./5% CO2 for 72 hr. 100 μl of CellTiter-Glo® Reagent (Promega Corporation, Madison, WI) was added to each well and processed according manufacturer's protocol. Results were analyzed and IC50 values were calculated in GraphPad 7 software. AGS proliferation assay: A. EC50<100 nM; B. EC50=100-1000 nM; C. EC50>1000 nM; GP2D proliferation assay: A. EC50<100 nM; B. EC50=100-1000 nM; C. EC50>1000 nM; MKN1 proliferation assay: A. EC50<100 nM; B. EC50=100-1000 nM; C. EC50>1000 nM;
(In general: ATP-based viability assays read luminescence as a measure of living cells.)

The test system of another assay is MKN1 cells. The assay is described as follows: MKN1 cell proliferation (CellTiter-Glo). The conditions noted are these: 0.5% DMSO, read-out: CTG(IC50) ABS-72 H(nM) MKN1. The method, then: as §1
A further assay relates to GP2D cells. Kind of assay: GP2D cell proliferation (CellTiter-Glo). The conditions noted are these: 72 hr, 0.5% DMSO, read-out: CTG(IC50) ABS-72 H(nM) GP2D. The method, then: as §1

Like-named read-outs stand apart in the source and are kept apart here. Where only a bound is given, the exact number is not on record here.

Broadly, the IC50 is the concentration that inhibits the measured activity by half. As to `C#Cc1c(F)ccc2cc(O)cc(-c3nc(OC)c4c(N5CC6CCC(C5)N6CC(F)(F)F)nc(OCC5(CN6CC7CC7C6)CC5)nc4c3F)c12` (centres unmarked) [Compound 4], the IC50 was > 1000 nM with AGS cells (Homo sapiens); > 1000 nM with MKN1 cells (Homo sapiens, MKN-1, 72 hr); 100 to 1000 nM in the assay with GP2D cells.
In the case of `[2H]C([2H])([2H])Oc1nc(-c2cc(O)cc3ccc(F)c(C#C)c23)c(F)c2nc(OCC3(CN4CC5CC5C4)CC3)nc(N3CC4CCC(C3)N4CC#N)c12` (centres unmarked) [Compound 11], the IC50 in the assay on AGS cells (Homo sapiens) was < 100 nM; in the assay on MKN1 cells (Homo sapiens, MKN-1, 72 hr), 100 to 1000 nM; with GP2D cells it was < 100 nM.
`C#Cc1c(F)ccc2cc(O)cc(-c3nc(OC)c4c(N5CC6CCC(C5)N6CCOC)nc(OCC5(CN6CC7CC7C6)CC5)nc4c3F)c12` (centres unmarked) [Compound 5]: the IC50 was 100 to 1000 nM in the assay with AGS cells (Homo sapiens); > 1000 nM in the assay on MKN1 cells (Homo sapiens, MKN-1, 72 hr); < 100 nM in the assay on GP2D cells.
The like results for `C#Cc1c(F)ccc2cc(O)cc(-c3nc(OC)c4c(N5CC6CCC(C5)N6CCO)nc(OCC5(CN6CC7CC7C6)CC5)nc4c3F)c12` (centres unmarked) [Compound 6] were, in that order, 100 to 1000 nM, 100 to 1000 nM and < 100 nM.
On the same counts, the results for `C#Cc1c(F)ccc2cc(O)cc(-c3nc(OC)c4c(N5CC6CCC(C5)N6C(=O)C#N)nc(OCC5(CN6CC7CC7C6)CC5)nc4c3F)c12` (centres unmarked) [Compound 2] are < 100 nM, 100 to 1000 nM and < 100 nM.
The like results for `C#Cc1c(F)ccc2cc(O)cc(-c3nc(OC)c4c(N5CC6CCC(C5)N6CC(C)=O)nc(OCC5(CN6CC7CC7C6)CC5)nc4c3F)c12` (centres unmarked) [Compound 12] were, in that order, < 100 nM, > 1000 nM and < 100 nM.
In the case of “2-(3-(2-[(1-(3-azabicyclo[3.1.0]hexan-3-ylmethylcyclopropyl) methoxy]-7-(8-ethynyl-7-fluoro-3-hydroxynaphthalen-1-yl)-8-fluoro-5-methoxypyrido[4,3-d]pyrimidin-4-yl-3,8-diazabicyclo[3.2.1]octan-8-yl)acetonitrile [Compound 1]”, the IC50 in the assay on AGS cells is < 100 nM; in the assay on MKN1 cells (72 hr) it was > 1000 nM; with GP2D cells it was < 100 nM.
For the compound `C#Cc1c(F)ccc2cc(O)cc(-c3nc(OC)c4c(N5CC6CCC(C5)N6CCCC#N)nc(OCC5(CN6CC7CC7C6)CC5)nc4c3F)c12` (centres unmarked) [Compound 14], the IC50 was < 100 nM in the assay with AGS cells (Homo sapiens); 100 to 1000 nM in the assay with MKN1 cells (Homo sapiens, MKN-1, 72 hr); < 100 nM with GP2D cells.
In the case of `C#Cc1c(F)ccc2cc(O)cc(-c3nc(OC)c4c(N5CC6CCC(C5)N6CCC(=O)O)nc(OCC5(CN6CCC(F)CC6)CC5)nc4c3F)c12` [Compound 16], the IC50 with AGS cells (Homo sapiens) is > 1000 nM; in the assay with MKN1 cells (Homo sapiens, MKN-1, 72 hr) it was > 1000 nM; in the assay on GP2D cells it was 100 to 1000 nM.
With `C#Cc1c(F)ccc2cc(O)cc(-c3nc(OC)c4c(N5CC6CCC(C5)N6CC#N)nc(OC[C@]56CCCN5C[C@@H](F)C6)nc4c3F)c12` [Compound 8], the IC50 in the assay on AGS cells (Homo sapiens) was < 100 nM; with MKN1 cells (Homo sapiens, MKN-1, 72 hr), > 1000 nM; in the assay with GP2D cells it was < 100 nM.
Turning to `C#Cc1c(F)ccc2cc(O)cc(-c3nc(OC)c4c(N5CC6CCC(C5)N6C(C)CCC#N)nc(OCC5(CN6CC7CC7C6)CC5)nc4c3F)c12` (centres unmarked) [Compound 15], the IC50 in the assay with AGS cells (Homo sapiens) is 100 to 1000 nM; in the assay with MKN1 cells (Homo sapiens, MKN-1, 72 hr), > 1000 nM; in the assay on GP2D cells it was > 1000 nM.
For `C#Cc1c(F)ccc2cc(O)cc(-c3nc(OC)c4c(N5CC6CCC(C5)N6CCC#N)nc(OCC5(CN6CC7CC7C6)CC5)nc4c3F)c12` (centres unmarked) [Compound 3], the IC50 with AGS cells (Homo sapiens) is 100 to 1000 nM; in the assay on MKN1 cells (Homo sapiens, MKN-1, 72 hr), > 1000 nM; in the assay on GP2D cells, < 100 nM.
The like results for `C#Cc1c(F)ccc2cc(O)cc(-c3nc(OC)c4c(N5CC6CCC(C5)N6CC(F)F)nc(OCC5(CN6CC7CC7C6)CC5)nc4c3F)c12` (centres unmarked) [Compound 13] were, in that order, 100 to 1000 nM, > 1000 nM and 100 to 1000 nM.
On the same counts, the results for `C#CCN1C2CCC1CN(c1nc(OCC3(CN4CC5CC5C4)CC3)nc3c(F)c(-c4cc(O)cc5ccc(F)c(C#C)c45)nc(OC)c13)C2` (centres unmarked) [Compound 9] are < 100 nM, > 1000 nM and < 100 nM.
Turning to `C#Cc1c(F)ccc2cc(O)cc(-c3nc(OC)c4c(N5CC6CCC(C5)N6CCCF)nc(OCC5(CN6CCC(F)CC6)CC5)nc4c3F)c12` [Compound 17], the IC50 with AGS cells (Homo sapiens) is 100 to 1000 nM; in the assay with MKN1 cells (Homo sapiens, MKN-1, 72 hr) it was > 1000 nM; with GP2D cells it was < 100 nM.
For the compound `[2H]C([2H])([2H])Oc1nc(-c2cc(O)cc3ccc(F)c(C#C)c23)c(F)c2nc(OCC3(CN4CC5CC5C4)CC3)nc(N3CC4CCC(C3)N4C#N)c12` (centres unmarked) [Compound 10], the 50% inhibitory concentration (IC50) was 100 to 1000 nM in the assay with AGS cells (Homo sapiens); 100 to 1000 nM in the assay on MKN1 cells (Homo sapiens, MKN-1, 72 hr); < 100 nM in the assay with GP2D cells.
Regarding `C#Cc1c(F)ccc2cc(O)cc(-c3nc(OC)c4c(N5CC6CCC(C5)N6CC(=O)O)nc(OCC5(CN6CCC(F)CC6)CC5)nc4c3F)c12` [Compound 18], the IC50 with AGS cells (Homo sapiens) was > 1000 nM; in the assay with MKN1 cells (Homo sapiens, MKN-1, 72 hr), > 1000 nM.
For the compound `C#Cc1c(F)ccc2cc(O)cc(-c3nc(OC)c4c(N5CC6CCC(C5)N6CCCO)nc(OCC5(CN6CC7CC7C6)CC5)nc4c3F)c12` (centres unmarked) [Compound 7], the IC50 in the assay on AGS cells (Homo sapiens) is 100 to 1000 nM; in the assay on MKN1 cells (Homo sapiens, MKN-1, 72 hr) it was 100 to 1000 nM; with GP2D cells, < 100 nM.
